Data: patent US8858995B2, “Methods and compositions for controlled delivery of phytochemical agents” (priority 2008, dated 2014)
Several values for one entry are separate records, joined by “and”; a condition that tells them apart may be missing. Equal values may be shown once. Read-outs that look alike come from different tables or passages of the source.

Key:
[1] = In vivo release of curcumin from PCL-121K:PEG-8K implants (residual content); parameters: species or system ACI rats
Text: (§1) The in vivo cumulative release was studied in female Augustus Copenhagen Irish (ACI) rats following an approved protocol from an Institutional Animal Care and Use Committee (IACUC). […] All the animals were provided food and water ad libitum. Sham and curcumin implants were subcutaneously grafted at the back of the rats and were monitored for their diet intake and body weight. Animals were euthanized at different time intervals by asphyxiation to collect blood, liver, brain, local tissues and implants. All the tissues were snap frozen in liquid nitrogen and stored at −80° C. until further analysis.
Initial and residual curcumin content in the implants was also analyzed to determine the cumulative drug release. Implants recovered from animals were dissolved in 5 ml dichloromethane. […] The solution was then diluted suitably (400-fold) with ethanol.
where T1, T2, T3, . . . Tn are different time intervals.

[2] = Plasma, liver and brain curcumin levels, implants versus diet (HPLC-fluorescence); format: in vivo, ACI rats; settings: for plasma curcumin level: curcumin diet
Text: as §1
Plasma pooled from all the animals (1.5 ml) was mixed with […] of 0.5 M sodium acetate to reduce the pH to 5. Plasma was then extracted three times with 3 ml ethyl acetate. Ethyl acetate extracts were pooled and dried under vacuum. The dried residue was reconstituted in 100 μl of acetonitrile, and one-half of the solution was analyzed by HPLC. Similarly, liver or brain tissue (approximately 500 mg) from each animal was homogenized in 3 ml PBS (pH 7.4) containing 200 μl sodium acetate (0.5 M). The homogenate was then extracted twice with two volumes of ethyl acetate. After evaporation of ethyl acetate under vacuum, the residue was reconstituted in 1 ml acetonitrile. The solution was filtered through 0.45 μm glass-microfiber filter and evaporated again under vacuum. The residue was finally reconstituted in 100 μl acetonitrile, and one-half of it was analyzed by HPLC using a Shimadzu liquid chromatography system equipped with LC-10ADVP pump, RF-10AXL fluorescence detector and a Shimadzu C18 column of 5 μm particles (250×4.6 mm). The three curcuminoids were separated by using acetonitrile and 1% citric acid (adjusted to pH 2.5) at a flow rate of 1 ml/min with a gradient elution in which acetonitrile concentration was increased from 0% to 30% in first 5 min, followed by an increase to 45% in next 5-20 min. Acetonitrile was then maintained at this ratio till 36 min. Curcuminoids were detected using 410 and 500 nm as excitation and emission maxima, respectively, in the fluorescence detector.

[3] = mouse, sc
Procedure: (§2) To assess the coated implants (i.e., where the compositions were in the form of coatings), in vivo studies were also performed. […] All groups of animals were also treated with dibenzo[a,I]pyrene (DBP) via polymeric implants (1-cm, 1.4 mm dia, 5% DBP load) at the same time. Implants were grafted subcutaneously, and animal were euthanized after 3 weeks. […] In both cases, animals were euthanized by CO2 asphyxiation and selected tissues (lung, liver and brain) were collected and stored at −80° C. until processing. Implants were also recovered, dried under vacuum and stored in amber vials under argon at 4° C. until analysis.
The supernatants were diluted with ethanol:DCM (80:20) and their concentrations were measured spectrophotometrically at maximal absorbance and the concentrations were calculated against standard curves of individual compounds.

[4] = tested on: DBP-DNA adducts; test: Dibenzo[a,I]pyrene (DBP)-DNA adducts in lung (32P-postlabeling); format: in vivo, A/J mice; settings: two 1.5 cm coated implants; DBP implant; 3 weeks
Procedure: as §2
To analyze the formation of DNA adducts, DNA was isolated from lung tissue (200 mg) by treatment of the isolated crude nuclei with RNases and proteinase K, followed by extractions with phenol, phenol:Sevag and Sevag. DNA was recovered by ethanol precipitation and its concentration was measured spectrophotometrically considering 1 A260 equals 50 μg DNA. DNA adducts were analyzed by nuclease P1-mediated ^32P-postlabeling/TLC assay and expressed as adducts per 10^9 nucleotides.

[5] = Toxicity of coated implants (body weight, hematology, liver and kidney function); format: in vivo, A/J mice
Procedure: To assess the toxicity of the implants, blood was collected separately at the time of euthanasia and hematological parameters were analyzed using whole blood by Cell Dyn 3500 hematology analyzer (Abbott laboratories, Santa Clara, Calif.). Serum was used to analyze the liver and kidney function test. An ion selective electrode was used for various electrolytes analysis and in-built spectrophotometric techniques were used for all other biochemical parameters analysis on automated AU640 Chemistry analyzed (Beckman Coulter, Inc., Brea, Calif.).

[6] = tested on: B[a]P-induced DNA adducts
[7] = tested on: B[a]P-induced DNA adducts; remark: listed apart in the source
[8] = female, ACI (Augustus Copenhagen Irish), rat, plasma, oral, 1000 ppm in diet
[9] = 1 cm PCL matrix with 20 mg curcumin, s.c., bolus B[a]P
[10] = dietary curcumin 400 ppm, bolus B[a]P
[11] = dietary curcumin 400 ppm, single i.p. B[a]P 50 mg/kg
[12] = curcumin implants, B[a]P implant 1 cm, 10 mg, 30 days post B[a]P
[13] = curcumin implants, sustained low dose B[a]P, 30 days

COc1cc(/C=C/C(=O)CC(=O)/C=C/c2ccc(O)c(OC)c2)ccc1O [curcumin]
in vivo burst release on day 1 ([1]; 2-cm implant, 40 mg, s.c.): approximately 1800 μg
curcumin released after 1 day of implantation ([1]; from weight loss studies): 1.8 mg
curcumin delivered by both the implants combined ([1]; over 90 days, versus around 900 mg by diet): 38 mg
cumulative in vivo release after 1 month ([1]; rat, in vivo): approximately 30%
in vivo drug release after 3 months ([1]; rat, in vivo): approximately 130 μg/day
in vivo drug release over a period of 1 month ([1]; rat, in vivo): 300 to 350 µg/day
in vivo release on day 4 ([1]; rat, in vivo): approximately 380 μg
liver curcumin level ([2]; both routes (implants, diet), day 1): 25 to 30 ng
liver curcumin level ([2]; both routes, after 12 days): 10 to 15 ng
plasma curcumin level ([2]; 25 and 90 days): undetectable
plasma curcumin level ([2]; day 1): not observed
brain curcumin level ([2]; dietary administration 1000 ppm, all the time points): 2 to 3 ng/g
concentration at 1 day ([2]; female, ACI (Augustus Copenhagen Irish), rat, brain, subcutaneous, 2 2-cm curcumin implants, implant route, day 1): 30 ± 7.3 ng/g
Kp ([2]; female, ACI (Augustus Copenhagen Irish), rat, liver (against plasma), other: both routes (subcutaneous implants, diet), via both routes): 10 to 20
concentration at 4 day [2, 8]: 0.3 ng/mL and 0.815 nM
concentration at 12 days [2, 8]: 0.543 nM and 0.2 ng/mL
concentration at 3 months ([2]; female, ACI (Augustus Copenhagen Irish), rat, plasma, subcutaneous, 2 2-cm curcumin implants, implants, after 3 months): ~0.2 ng/mL and 0.543 nM
concentration at 1 day ([2]; female, ACI (Augustus Copenhagen Irish), rat, plasma, subcutaneous, 2 2-cm curcumin implants, implants, day 1): 9 nM
concentration at 4 day ([2]; female, ACI (Augustus Copenhagen Irish), rat, plasma, subcutaneous, 2 2-cm curcumin implants, implants, day 4): 1.4 ng/mL and 4 nM
concentration at 1 day ([2]; female, ACI (Augustus Copenhagen Irish), rat, subcutaneous, 2 2-cm curcumin implants, implants (two 2-cm), day 1, pooled plasma): 3.3 ng/mL
brain curcumin level ([2]; implant route, after 12 days, same levels after 90 days): around 7.26±2.45 ng/g tissue
curcumin concentration in brain tissue, implant route higher than diet ([2]; rat, in vivo): approximately 3.5 fold
plasma and liver concentrations observed in the in vivo study ([2]; rat, in vivo): 78 to 95 nM
total release in vivo at the end of 3 weeks [3]: 19.9%
lung DBP-DNA adduct levels [4]: virtually no effect
hematological parameters, liver enzymes, biochemical parameters of kidney function versus sham implant ([5]; 3 weeks after grafting): No significant differences
body weight ([5]; s.c. polymeric implants): no effect on the body weight
inhibition of B[a]P-induced DNA adducts, liver [6, 9]: 48%
inhibition of B[a]P-induced DNA adducts, lung [6, 9]: 17%
dose of curcumin delivered by the implant ([6]; bolus B[a]P study): approximately 80 μg/rat/day
DNA adduct level, liver [6, 10]: 74±110 adducts/10^9 nucleotides
DNA adduct level, lung [6, 10]: 65±53 adducts/10^9 nucleotides
inhibition of B[a]P-induced DNA adducts, liver [6, 11]: 83%
inhibition of B[a]P-induced DNA adducts, lung [6, 11]: 45%
B[a]P-induced DNA adducts in liver and lung versus sham implant ([7]; 1 cm matrix 20% w/w curcumin, B[a]P implant, 30 days): inhibited the B[a]P-induced DNA adducts in both the liver and lung
inhibition of adducts, liver [7, 12]: 83%
inhibition of adducts, lung [7, 12]: 65%
DNA adduct level, liver [7, 13]: 4±0.7 adducts/10^9 nucleotides
DNA adduct level, lung [7, 13]: 9±5 adducts/10^9 nucleotides
